These results are taken from patent US7875647B2, “Heteroaryl-pyrazole derivatives as cannabinoid CB1 receptor antagonists” (Green Cross Corporation, priority 2006, dated 2011).

In the first experiment the target is T1, Cannabinoid-1 receptor (CB1R) (Rattus norvegicus, UniProt P20272).
T1 construct: The tissue obtained from the brain of SD rats was homogenized; from tissue; host or cells: brain of SD rats (membrane pellet of the homogenate)
T1 sequence (P20272 whole entry): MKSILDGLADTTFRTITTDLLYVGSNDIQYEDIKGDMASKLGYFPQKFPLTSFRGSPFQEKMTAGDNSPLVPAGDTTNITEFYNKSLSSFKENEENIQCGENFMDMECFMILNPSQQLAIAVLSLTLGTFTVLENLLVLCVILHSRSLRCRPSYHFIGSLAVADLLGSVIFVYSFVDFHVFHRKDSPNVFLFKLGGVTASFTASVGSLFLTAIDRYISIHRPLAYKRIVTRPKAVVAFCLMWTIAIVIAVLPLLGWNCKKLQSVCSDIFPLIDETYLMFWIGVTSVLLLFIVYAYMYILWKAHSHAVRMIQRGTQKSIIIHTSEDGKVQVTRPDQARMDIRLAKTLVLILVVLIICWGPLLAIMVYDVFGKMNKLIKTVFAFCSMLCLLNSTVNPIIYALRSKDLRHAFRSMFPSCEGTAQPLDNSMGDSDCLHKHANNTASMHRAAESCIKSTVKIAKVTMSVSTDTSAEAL
Nature of the experiment: Cannabinoid-1 receptor (CB1R) binding affinity assay ([3H]CP-55940, rat CB-1 receptor binding protocol). The settings on record: IC50(nM), brain tissue of SD rats, [3H]CP-55940, 30° C. 60 min.
The molecule `CC(C)(C)c1nnc(-c2nn(-c3ccc(Cl)cc3Cl)c(-c3ccc(Cl)cc3)c2C2CC2)s1` [Example 441, 2-tert-butyl-5-(5-(4-chlorophenyl)-4-cyclopropyl-1-(2,4-dichlorophenyl)-1H-pyrazol-3-yl)-1,3,4-thiadiazole] registered a half-maximal inhibitory concentration (IC50) of 29.8 nM.

For `CCCCCOC(C)(C)c1nnc(-c2nn(-c3ccc(Cl)cc3Cl)c(-c3ccc(Cl)cc3)c2C)s1` [Example 461, 2-(5-(4-chlorophenyl)-1-(2,4-dichlorophenyl)-4-methyl-1H-pyrazol-3-yl)-5-(2-(pentyloxy)propan-2-yl)-1,3,4-thiadiazole], the half-maximal inhibitory concentration (IC50) is 13.7 nM.

Staying with this experiment, now noted: brain tissue of SD rats, [3H]CP-55940, 30° C. 60 min; read-out: IC50.
For the molecule `Cc1c(-c2nnc(C(C)(C)C)s2)nn(-c2ccc(Cl)cc2Cl)c1-c1cccc(Cl)c1` [Example 434, 2-tert-butyl-5-(5-(3-chlorophenyl)-1-(2,4-dichlorophenyl)-4-methyl-1H-pyrazol-3-yl)-1,3,4-thiadiazole], the IC50 is 172 nM.

Take `CCC(C)c1nnc(-c2nn(-c3ccc(Cl)cc3Cl)c(-c3cccc(Cl)c3)c2C)s1` (stereo not shown) [Example 435, 2-sec-butyl-5-(5-(3-chlorophenyl)-1-(2,4-dichlorophenyl)-4-methyl-1H-pyrazol-3-yl)-1,3,4-thiadiazole]: the 50% inhibitory concentration (IC50) turned out to be 277 nM.

With `Cc1c(-c2nnc(C3CCC3)s2)nn(-c2ccc(Cl)cc2Cl)c1-c1cccc(Cl)c1` [Example 436, 2-(5-(3-chlorophenyl)-1-(2,4-dichlorophenyl)-4-methyl-1H-pyrazol-3-yl)-5-cyclobutyl-1,3,4-thiadiazole], the half-inhibitory concentration (IC50) worked out at 893 nM.

In the case of `CCOC(C)(C)c1nnc(-c2nn(-c3ccc(Cl)cc3Cl)c(-c3ccc(Cl)cc3)c2C)s1` [Example 437, 2-(5-(4-chlorophenyl)-1-(2,4-dichlorophenyl)-4-methyl-1H-pyrazol-3-yl)-5-(2-ethoxypropan-2-yl)-1,3,4-thiadiazole], the IC50 was determined as 53.6 nM.

As for `CCC(C)(C)c1nnc(-c2nn(-c3ccc(Cl)cc3Cl)c(-c3cccc(Cl)c3)c2C)s1` [Example 439, 2-(5-(3-Chlorophenyl)-1-(2,4-dichlorophenyl)-4-methyl-1H-pyrazol-3-yl)-5-tert-pentyl-1,3,4-thiadiazole], the IC50 worked out at 263 nM.

Take `Clc1ccc(-c2c(C3CC3)c(-c3nnc(C4CCCCC4)s3)nn2-c2ccc(Cl)cc2Cl)cc1` [Example 440, 2-(5-(4-chlorophenyl)-4-cyclopropyl-1-(2,4-dichlorophenyl)-1H-pyrazol-3-yl)-5-cyclohexyl-1,3,4-thiadiazole]: the IC50 came out at 11 nM.

For `Clc1ccc(-c2c(C3CC3)c(-c3nnc(C4CCC4)s3)nn2-c2ccc(Cl)cc2Cl)cc1` [Example 442, 2-(5-(4-chlorophenyl)-4-cyclopropyl-1-(2,4-dichlorophenyl)-1H-pyrazol-3-yl)-5-cyclobutyl-1,3,4-thiadiazole], the half-maximal inhibitory concentration (IC50) came out at 18 nM.

Consider `CCC(C)c1nnc(-c2nn(-c3ccc(Cl)cc3)c(-c3ccc(Cl)cc3)c2C)s1` (stereo not shown) [Example 444, 2-(1,5-bis(4-chlorophenyl)-4-methyl-1H-pyrazol-3-yl)-5-sec-butyl-1,3,4-thiadiazole], for which the IC50 is 292 nM.

For the molecule `Cc1c(-c2nnc(C3(c4ccc(Cl)cc4)CC3)s2)nn(-c2ccc(Cl)cc2)c1-c1ccc(Cl)cc1` [Example 447, 2-(1,5-bis(4-chlorophenyl)-4-methyl-1H-pyrazol-3-yl)-5-(1-(4-chlorophenyl)cyclopropyl)-1,3,4-thiadiazole], the IC50 is 453 nM.

As for `CCC(C)(C)c1nnc(-c2nn(-c3ccc(Cl)cc3)c(-c3ccc(Cl)cc3)c2C)s1` [Example 448, 2-(1,5-bis(4-chlorophenyl)-4-methyl-1H-pyrazol-3-yl)-5-tert-pentyl-1,3,4-thiadiazole], the half-maximal inhibitory concentration (IC50) was found to be 199 nM.

Turning to `CCCOC(C)(C)c1nnc(-c2nn(-c3ccc(Cl)cc3Cl)c(-c3ccc(Cl)cc3)c2C)s1` [Example 449, 2-(5-(4-chlorophenyl)-1-(2,4-dichlorophenyl)-4-methyl-1H-pyrazol-3-yl)-5-(2-propoxypropan-2-yl)-1,3,4-thiadiazole], the IC50 turned out to be 61.3 nM.

For `CCc1c(-c2nnc(C3(c4ccccc4)CC3)s2)nn(-c2ccc(Cl)cc2Cl)c1-c1ccc(Br)cc1` [Example 450, 2-(5-(4-bromophenyl)-1-(2,4-dichlorophenyl)-4-ethyl-1H-pyrazol-3-yl)-5-(1-phenylcyclopropyl)-1,3,4-thiadiazole], the half-inhibitory concentration (IC50) worked out at 7.42 nM.

With `CCc1c(-c2nnc(C(C)(C)CC)s2)nn(-c2ccc(Cl)cc2Cl)c1-c1ccc(Br)cc1` [Example 451, 2-(5-(4-bromophenyl)-1-(2,4-dichlorophenyl)-4-ethyl-1H-pyrazol-3-yl)-5-tert-pentyl-1,3,4-thiadiazole], the 50% inhibitory concentration (IC50) amounted to 19.7 nM.

Consider `CCc1c(-c2nnc(C3CC4CCC3C4)s2)nn(-c2ccc(Cl)cc2Cl)c1-c1ccc(Br)cc1` (stereo not shown) [Example 452, 2-(bicyclo[2.2.1]heptan-2-yl)-5-(5-(4-bromophenyl)-1-(2,4-dichlorophenyl)-4-ethyl-1H-pyrazol-3-yl)-1,3,4-thiadiazole], for which the IC50 worked out at 54.1 nM.

Turning to `CCc1c(-c2nnc(C(C)C)s2)nn(-c2ccc(Cl)cc2Cl)c1-c1ccc(Br)cc1` [Example 453, 2-(5-(4-bromophenyl)-1-(2,4-dichlorophenyl)-4-ethyl-1H-pyrazol-3-yl)-5-isopropyl-1,3,4-thiadiazole], the half-inhibitory concentration (IC50) is 27.1 nM.

For `CCc1c(-c2nnc(C(CC)CC)s2)nn(-c2ccc(Cl)cc2Cl)c1-c1ccc(Br)cc1` [Example 454, 2-(5-(4-bromophenyl)-1-(2,4-dichlorophenyl)-4-ethyl-1H-pyrazol-3-yl)-5-(pentan-3-yl)-1,3,4-thiadiazole], the 50% inhibitory concentration (IC50) stood at 23.1 nM.

Take `CCc1c(-c2nnc(C3(C)CCCCC3)s2)nn(-c2ccc(Cl)cc2Cl)c1-c1ccc(Br)cc1` [Example 455, 2-(5-(4-bromophenyl)-1-(2,4-dichlorophenyl)-4-ethyl-1H-pyrazol-3-yl)-5-(1-methylcyclohexyl)-1,3,4-thiadiazole]: the concentration for half-maximal inhibition (IC50) stood at 14.5 nM.

On to `C=CCOC(C)(C)c1nnc(-c2nn(-c3ccc(Cl)cc3Cl)c(-c3ccc(Cl)cc3)c2C)s1` [Example 456, 2-(2-(allyloxy)propan-2-yl)-5-(5-(4-chlorophenyl)-1-(2,4-dichlorophenyl)-4-methyl-1H-pyrazol-3-yl)-1,3,4-thiadiazole], for which the half-maximal inhibitory concentration (IC50) came out at 61 nM.

Regarding `CCCCOC(C)(C)c1nnc(-c2nn(-c3ccc(Cl)cc3Cl)c(-c3ccc(Cl)cc3)c2C)s1` [Example 457, 2-(2-butoxypropan-2-yl)-5-(5-(4-chlorophenyl)-1-(2,4-dichlorophenyl)-4-methyl-1H-pyrazol-3-yl)-1,3,4-thiadiazole], the IC50 was determined as 16.9 nM.

On to `COc1ccc(C2(c3nnc(-c4nn(-c5ccc(Cl)cc5Cl)c(-c5ccc(Cl)cc5)c4C)s3)CC2)cc1` [Example 458, 2-(5-(4-chlorophenyl)-1-(2,4-dichlorophenyl)-4-methyl-1H-pyrazol-3-yl)-5-(1-(4-methoxyphenyl)cyclopropyl)-1,3,4-thiadiazole], for which the half-maximal inhibitory concentration (IC50) is 25.8 nM.

For the molecule `Cc1c(-c2nnc(C3(c4ccc(Cl)cc4Cl)CC3)s2)nn(-c2ccc(Cl)cc2Cl)c1-c1ccc(Cl)cc1` [Example 459, 2-(5-(4-chlorophenyl)-1-(2,4-dichlorophenyl)-4-methyl-1H-pyrazol-3-yl)-5-(1-(2,4-dichlorophenyl)cyclopropyl)-1,3,4-thiadiazole], the IC50 came to 10.8 nM.

Consider `Cc1ccc(C2(c3nnc(-c4nn(-c5ccc(Cl)cc5Cl)c(-c5ccc(Cl)cc5)c4C)s3)CC2)cc1` [Example 460, 2-(5-(4-chlorophenyl)-1-(2,4-dichlorophenyl)-4-methyl-1H-pyrazol-3-yl)-5-(1-p-tolylcyclopropyl)-1,3,4-thiadiazole], for which the IC50 stood at 20.1 nM.

Take `Cc1c(-c2nnc(C3(C(F)(F)F)CC3)s2)nn(-c2ccc(Cl)cc2Cl)c1-c1ccc(Cl)cc1` [Example 462, 2-(5-(4-chlorophenyl)-1-(2,4-dichlorophenyl)-4-methyl-1H-pyrazol-3-yl)-5-(1-(trifluoromethyl)cyclopropyl)-1,3,4-thiadiazole]: the 50% inhibitory concentration (IC50) was 36.5 nM.

On to `CCc1c(-c2nnc(C3(c4ccc(Cl)cc4)CC3)s2)nn(-c2ccc(Cl)cc2Cl)c1-c1ccc(Cl)cc1` [Example 463, 2-(5-(4-chlorophenyl)-1-(2,4-dichlorophenyl)-4-ethyl-1H-pyrazol-3-yl)-5-(1-(4-chlorophenyl)cyclopropyl)-1,3,4-thiadiazole], for which the 50% inhibitory concentration (IC50) worked out at 3.95 nM.

In the case of `CCc1c(-c2nnc(C3(c4ccc(Cl)cc4)CC3)s2)nn(-c2ccccc2Cl)c1-c1ccc(Br)cc1` [Example 464, 2-(5-(4-bromophenyl)-1-(2-chlorophenyl)-4-ethyl-1H-pyrazol-3-yl)-5-(1-(4-chlorophenyl)cyclopropyl)-1,3,4-thiadiazole], the IC50 is 4.41 nM.

As to `Cc1c(-c2nnc(C3(C(F)(F)F)CCC3)s2)nn(-c2ccc(Cl)cc2Cl)c1-c1ccc(Cl)cc1` [Example 465, 2-(5-(4-chlorophenyl)-1-(2,4-dichlorophenyl)-4-methyl-1H-pyrazol-3-yl)-5-(1-(trifluoromethyl)cyclobutyl)-1,3,4-thiadiazole], the IC50 turned out to be 33.9 nM.

As for `Cc1c(-c2nnc(CC(F)(F)F)s2)nn(-c2ccc(Cl)cc2Cl)c1-c1ccc(Cl)cc1` [Example 466, 2-(5-(4-chlorophenyl)-1-(2,4-dichlorophenyl)-4-methyl-1H-pyrazol-3-yl)-5-(2,2,2-trifluoroethyl)-1,3,4-thiadiazole], the IC50 is 102 nM.

Take `CCc1c(-c2nnc(C3(Cc4ccccc4)CC3)s2)nn(-c2ccc(Cl)cc2Cl)c1-c1ccc(Br)cc1` [Example 468, 2-(1-benzylcyclopropyl)-5-(5-(4-bromorophenyl)-1-(2,4-dichlorophenyl)-4-ethyl-1H-pyrazol-3-yl)-1,3,4-thiadiazole]: the half-inhibitory concentration (IC50) came to 5.94 nM.

Take `Cc1c(-c2nnc(C3(C)CC3)s2)nn(-c2ccc(Cl)cc2Cl)c1-c1ccc(Cl)cc1` [Example 469, 2-(5-(4-chlorophenyl)-1-(2,4-dichlorophenyl)-4-methyl-1H-pyrazol-3-yl)-5-(1-methylcyclopropyl)-1,3,4-thiadiazole]: the half-maximal inhibitory concentration (IC50) came out at 36.3 nM.
